Several values for one entry are separate records, joined by “and”; a condition that tells them apart may be missing. Equal values may be shown once.
What was measured:
serum uric acid = experiment: Serum uric acid after single oral doses in male healthy volunteers (Example 2); assay type: in vivo, human; conditions: for Mean CFB (change from baseline) in uric acid levels: male healthy volunteers, n = 6
Experimental: Male healthy volunteers received 50-400 mg enantiomerically-pure (S)-tofisopam by oral administration. Mean serum uric acid values fell by 23% to 30% within 4 hours after receiving single doses (Table 1).

xanthine oxidase = xanthine oxidase (Homo sapiens, UniProt P47989); experiment: Xanthine oxidase inhibition; assay type: biochemical; conditions: unlike allopurinol
[1] = test system: urinary creatinine excretion; experiment: 24 h urinary creatinine excretion in patients with hyperuricemia and gout (Example 9); assay type: in vivo, human; conditions: 50 mg qd Day 1 and 7, tid Days 2 to 6
Experimental: The study lasted 7 days, and patients were treated with placebo or 50 mg of enantiomerically-pure (S)-tofisopam once a day (qd) on Day 1 and Day 7 of the study, and with placebo or 50 mg of enantiomerically-pure (S)-tofisopam three times a day (tid) for Days 2 to 6 of the study. […] In Table 8, days indicated with a minus sign (e.g. D-1) indicate the time point corresponding to that number of days before treatment was initiated. For example, D-14 is the time point fourteen days before treatment was initiated.

[2] = test system: fractional excretion of uric acid; experiment: Post hoc analysis of clinical trial specimens: fractional excretion of uric acid and renal function (Example 3); assay type: in vivo, human; conditions: 50 mg TID
Text: In another study in healthy men and postmenopausal women, the trial period included a single-dose phase (Day 1) and a multiple-dose phase (Days 2-6). […] With multiple-dose oral administration (twice a day (BID) or three times a day (TID) on days 2-6), this decrease was more pronounced.

serum creatinine = experiment: Serum creatinine in male and female patients with hyperuricemia and gout, 7 days (Example 8); assay type: in vivo, human; conditions: 50 mg qd Day 1 and Day 7, tid Days 2 to 6, hyperuricemia and gout
Experimental: The study lasted 7 days, and patients were treated with placebo or 50 mg of enantiomerically-pure (S)-tofisopam once a day (qd) on Day 1 and Day 7 of the study, and with placebo or 50 mg of enantiomerically-pure (S)-tofisopam three times a day (tid) for Days 2 to 6 of the study. […] In Table 7, days indicated with a minus sign (e.g. D-1) indicate the time point corresponding to that number of days before treatment was initiated. For example, D-14 is the time point fourteen days before treatment was initiated.

[3] = individual patient (P#), [D 1 to D 2] from [D −2 to D −1]
[4] = individual patient (P#), [D 6 to D 7] from [D 1 to D 2]
[5] = mean (M) of patients, [D 1 to D 2] from [D −2 to D −1]
[6] = mean (M) of patients, [D 6 to D 7] from [D 1 to D 2]
[7] = Day 1 to Day 2: Day 1 0 h + Day 2

Chain of xanthine oxidase (P47989 whole entry, species assumed): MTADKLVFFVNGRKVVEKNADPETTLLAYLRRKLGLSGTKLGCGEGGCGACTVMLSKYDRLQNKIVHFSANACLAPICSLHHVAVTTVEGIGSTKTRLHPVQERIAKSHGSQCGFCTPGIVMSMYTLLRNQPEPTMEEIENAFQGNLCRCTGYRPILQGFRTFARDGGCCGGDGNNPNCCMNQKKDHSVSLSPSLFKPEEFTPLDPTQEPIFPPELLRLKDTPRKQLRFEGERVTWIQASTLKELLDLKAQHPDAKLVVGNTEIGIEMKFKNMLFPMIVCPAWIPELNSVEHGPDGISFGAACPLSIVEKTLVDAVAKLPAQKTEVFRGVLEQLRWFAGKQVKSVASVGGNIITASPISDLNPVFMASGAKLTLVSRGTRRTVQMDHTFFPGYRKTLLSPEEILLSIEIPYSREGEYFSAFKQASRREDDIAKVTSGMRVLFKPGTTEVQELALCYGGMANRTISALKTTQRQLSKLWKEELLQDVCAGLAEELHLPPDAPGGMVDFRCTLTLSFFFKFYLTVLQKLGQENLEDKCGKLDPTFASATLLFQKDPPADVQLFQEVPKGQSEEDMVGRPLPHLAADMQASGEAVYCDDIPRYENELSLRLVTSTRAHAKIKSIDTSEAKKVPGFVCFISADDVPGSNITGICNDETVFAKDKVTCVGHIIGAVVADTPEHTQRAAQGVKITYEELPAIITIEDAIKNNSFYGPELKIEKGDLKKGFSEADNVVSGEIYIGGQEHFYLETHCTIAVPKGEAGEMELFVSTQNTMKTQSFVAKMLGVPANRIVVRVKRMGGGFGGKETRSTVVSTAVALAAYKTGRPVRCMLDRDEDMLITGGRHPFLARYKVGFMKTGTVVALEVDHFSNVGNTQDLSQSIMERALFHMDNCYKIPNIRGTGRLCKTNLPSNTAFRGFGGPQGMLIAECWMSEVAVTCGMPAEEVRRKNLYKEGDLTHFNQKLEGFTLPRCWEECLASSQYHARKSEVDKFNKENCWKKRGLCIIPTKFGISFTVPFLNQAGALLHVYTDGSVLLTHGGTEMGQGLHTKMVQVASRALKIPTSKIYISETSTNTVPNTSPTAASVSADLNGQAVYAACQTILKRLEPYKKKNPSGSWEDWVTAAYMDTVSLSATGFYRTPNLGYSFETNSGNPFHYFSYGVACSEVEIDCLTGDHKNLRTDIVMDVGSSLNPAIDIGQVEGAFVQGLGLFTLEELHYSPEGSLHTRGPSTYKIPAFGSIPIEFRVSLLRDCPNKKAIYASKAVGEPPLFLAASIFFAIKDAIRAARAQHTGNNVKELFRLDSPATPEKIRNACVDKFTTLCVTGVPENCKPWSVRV

SMILES: CC[C@@H]1C(C)=NN=C(c2ccc(OC)c(OC)c2)c2cc(OC)c(OC)cc21 [(S)-tofisopam]
- Mean CFB (change from baseline) in uric acid levels (serum uric acid; single oral dose 50 mg, 4 hours after dose): −23%
- Mean CFB (change from baseline) in uric acid levels (serum uric acid; single oral dose 50 mg, 24 hours after dose): −25%
- Mean CFB (change from baseline) in uric acid levels (serum uric acid; single oral dose 50 mg, 48 hours after dose): −24%
- Mean CFB (change from baseline) in uric acid levels (serum uric acid; single oral dose 100 mg, 4 hours after dose): −25%
- Mean CFB (change from baseline) in uric acid levels (serum uric acid; single oral dose 100 mg, 24 hours after dose): −28%
- Mean CFB (change from baseline) in uric acid levels (serum uric acid; single oral dose 100 mg, 48 hours after dose): −29%
- Mean CFB (change from baseline) in uric acid levels (serum uric acid; single oral dose 200 mg, 4 hours after dose): −29%
- Mean CFB (change from baseline) in uric acid levels (serum uric acid; single oral dose 200 mg, 24 hours after dose): −36%
- Mean CFB (change from baseline) in uric acid levels (serum uric acid; single oral dose 200 mg, 48 hours after dose): −37%
- Mean CFB (change from baseline) in uric acid levels (serum uric acid; single oral dose 300 mg, 4 hours after dose): −30%
- Mean CFB (change from baseline) in uric acid levels (serum uric acid; single oral dose 300 mg, 24 hours after dose): −48%
- Mean CFB (change from baseline) in uric acid levels (serum uric acid; single oral dose 300 mg, 48 hours after dose): −49%
- Mean CFB (change from baseline) in uric acid levels (serum uric acid; single oral dose 400 mg, 4 hours after dose): −27%
- Mean CFB (change from baseline) in uric acid levels (serum uric acid; single oral dose 400 mg, 24 hours after dose): −48%
- Mean CFB (change from baseline) in uric acid levels (serum uric acid; single oral dose 400 mg, 48 hours after dose): −45%
- Time course of uric acid levels after single dose (serum uric acid; single oral doses 50-400 mg, 4, 24 and 48 hours): decreased further up to the 24-hour timepoint, with no further decrease at 48 hours
- Dose relation of decreases in uric acid levels (serum uric acid; single oral doses 50-400 mg, slightly lower decreases at 400 mg): dose-related up to the 300 mg dose
- Inhibition of xanthine oxidase (xanthine oxidase): does not inhibit
- Percent change in Uc (mg/24 h), amount of creatinine excreted into the urine over 24 hours [1, 3]: 47.6% and 5.5% and −22.9% and −16.8% and 11.5% and −8.7% and −5.2% and −8.1% and −15.0% and −3.5% and −11.0% and 3.8%
- Percent change in Uc (mg/dL), concentration of creatinine in 24 hour urine [1, 3]: 71.2% and −14.5% and 14.4% and −14.1% and −44.2% and −5.6% and 56.8% and −21.0% and −33.0% and 5.4% and −35.5% and 25.6%
- Percent change in Uc (mg/24 h), amount of creatinine excreted into the urine over 24 hours [1, 4]: −14.5% and 19.2% and 15.4% and 10.8% and 7.9% and 5.9% and 5.6% and 21.6% and 5.8% and −4.8% and −10.8%
- Percent change in Uc (mg/dL), concentration of creatinine in 24 hour urine [1, 4]: −31.0% and 0.2% and −33.7% and −21.3% and −15.2% and −32.1% and −38.3% and −24.0% and −11.2% and −6.0% and −30.1%
- Percent change in Uc (mg/24 h), amount of creatinine excreted into the urine over 24 hours [1, 5]: −1.9%
- Percent change in Uc (mg/dL), concentration of creatinine in 24 hour urine [1, 5]: 0.5%
- Percent change in Uc (mg/24 h), amount of creatinine excreted into the urine over 24 hours [1, 6]: 5.6%
- Percent change in Uc (mg/dL), concentration of creatinine in 24 hour urine [1, 6]: −22.1%
- Effect on other common parameters of renal function [2]: no measurable effect
- Fractional excretion of uric acid [2]: increases
- Renal injury [2]: no sign of renal injury
- Percent change in serum creatinine, individual patients (P# 1-13) (serum creatinine; Day 1 6 h (Day 1 0 h = 0.0)): 10.1% and 0.9% and 2.9% and 0.0% (2×) and 1.8% and 5.7% and 4.8% and 10.3%
- Percent change in serum creatinine, mean (M) of 13 patients (serum creatinine; Day 1 6 h (Day 1 0 h = 0.0)): 2.5%
- Percent change in serum creatinine, individual patients (P# 1-13) (serum creatinine; [7]): 4.4% and 0.9% and 0.5% (2×) and −1.0% and 2.3% and 0.8% and −1.3% and 6.7%
- Percent change in serum creatinine, mean (M) of 13 patients (serum creatinine; [7]): 1.1%
- Percent change in serum creatinine, individual patients (P# 1-13) (serum creatinine; Day 2 (Day 1 0 h = 0.0)): 8.9% and 1.9% and 1.0% and −2.0% and 4.5% and 0.9% and 1.6% and −2.6% and 13.3%
- Percent change in serum creatinine, mean (M) of 13 patients (serum creatinine; Day 2 (Day 1 0 h = 0.0)): 2.1%
- Percent change in serum creatinine, individual patients (P# 1-13) (serum creatinine; Day 3 (Day 1 0 h = 0.0)): 7.6% and 3.7% and 13.6% and 2.0% and 16.2% and 10.4% and 4.8% and 17.9% and 24.0% and 14.9%
- Percent change in serum creatinine, mean (M) of 13 patients (serum creatinine; Day 3 (Day 1 0 h = 0.0)): 10.1%
- Percent change in serum creatinine, individual patients (P# 1-13) (serum creatinine; Day 4 (Day 1 0 h = 0.0)): 3.8% and −5.6% and 4.9% and −2.0% and 21.6% and −2.8% and 3.2% and 14.1% and 18.7%
- Percent change in serum creatinine, mean (M) of 13 patients (serum creatinine; Day 4 (Day 1 0 h = 0.0)): 6.1%
- Percent change in serum creatinine, individual patients (P# 1-13) (serum creatinine; Day 5 (Day 1 0 h = 0.0)): −5.1% and −3.7% and 8.7% and 9.8% and 23.4% and 0.9% and 14.3% and 7.7% and 24.0%
- Percent change in serum creatinine, mean (M) of 13 patients (serum creatinine; Day 5 (Day 1 0 h = 0.0)): 7.2%
- Percent change in serum creatinine, individual patients (P# 1-13) (serum creatinine; Day 6 (Day 1 0 h = 0.0)): 17.7% and 7.4% and 2.9% and 4.9% and 9.9% and 0.0% and 6.3% and 7.7% and 18.7%
- Percent change in serum creatinine, mean (M) of 13 patients (serum creatinine; Day 6 (Day 1 0 h = 0.0)): 8.0%
- Percent change in serum creatinine, individual patients (P# 1-13) (serum creatinine; Day 6 to Day 7: Day 6 + Day 7): 15.2% and 2.3% and 0.5% and 1.0% and 10.4% and 5.7% and 7.1% and 5.1% and 12.0%
- Percent change in serum creatinine, mean (M) of 13 patients (serum creatinine; Day 6 to Day 7: Day 6 + Day 7): 5.8%
- Percent change in serum creatinine, individual patients (P# 1-13) (serum creatinine; Day 7 (Day 1 0 h = 0.0)): 12.7% and −2.8% and −1.9% and −2.9% and 10.8% and 11.3% and 7.9% and 2.6% and 5.3%
- Percent change in serum creatinine, mean (M) of 13 patients (serum creatinine; Day 7 (Day 1 0 h = 0.0)): 3.7%
